BigSolDB 2.1

Cc1c(OCC(F)(F)F)ccnc1CS(=O)c1nc2ccccc2[nH]1 (stereo not drawn)
solubility (mole fraction)
Details | 278.15 K | 283.15 K | 288.15 K | 293.15 K | 298.15 K | 303.15 K | 308.15 K | 313.15 K | 318.15 K
in acetone | 0.0174 | 0.0197 | 0.0221 | 0.0256 | 0.0287 | 0.0337 | 0.0398 | 0.0461 | 0.053
in acetonitrile | 0.00324 | 0.00406 | 0.00516 | 0.00642 | 0.00805 | 0.01 | 0.0124 | 0.015 | 0.0186
in ethanol | 0.00976 | 0.0114 | 0.0145 | 0.0179 | 0.0221 | 0.0274 | 0.0327 | 0.0402 | 0.0487
in ethyl acetate | 0.00415 | 0.00512 | 0.00637 | 0.00799 | 0.00962 | 0.0118 | 0.0145 | 0.0175 | 0.0216
in isobutanol | 0.00434 | 0.00534 | 0.00657 | 0.00803 | 0.0098 | 0.012 | 0.0148 | 0.0179 | 0.0218
in isopropanol | 0.00417 | 0.00469 | 0.00569 | 0.00708 | 0.00879 | 0.0109 | 0.0136 | 0.0168 | 0.0204
in methanol | 0.022 | 0.0271 | 0.0331 | 0.0428 | 0.0532 | 0.0653 | 0.0803 | 0.101 | 0.125
in methyl acetate | 0.00633 | 0.00729 | 0.00849 | 0.0105 | 0.0131 | 0.0158 | 0.02 | 0.0245 | 0.03
in n-butanol | 0.00564 | 0.00701 | 0.00832 | 0.0105 | 0.0127 | 0.016 | 0.0196 | 0.0242 | 0.0296
in n-butyl acetate | 0.00168 | 0.00206 | 0.00259 | 0.00329 | 0.00406 | 0.00505 | 0.0063 | 0.00785 | 0.00945
in n-propanol | 0.00803 | 0.00912 | 0.0108 | 0.0132 | 0.0157 | 0.019 | 0.0233 | 0.028 | 0.0335
in n-propyl acetate | 0.00227 | 0.00268 | 0.00342 | 0.00417 | 0.00522 | 0.00654 | 0.00831 | 0.0101 | 0.0127
